How the values were obtained:
asparaginase I = experiment: Effect of inducer and media composition on asparaginase I production; assay type: cell-based, Rhodococcus sp. DAP 96253; conditions: Rhodococcus sp. DAP 96253, inducer 1000 ppm
Description: Testing was performed to evaluate the effect on asparaginase I activity based upon the inducer used. In particular, testing was performed using asparagine, glutamine, succinonitrile, and isovaleronitrile as inducers (all added at 1000 ppm each).

amidase = experiment: Amidase induction by inducers (Example 1); assay type: cell-based, Rhodococcus sp., strain DAP 96253
Description: The induction of nitrile hydratase activity and amidase activity in Rhodococcus sp., strain DAP 96253, was evaluated using multiple types of inducers (1000 ppm). Three different samples were cultured in YEMEA medium containing 10 ppm cobalt and 7.5 g/L urea and supplemented with acrylonitrile, asparagine, or glutamine. The specific nitrile hydratase activity and the specific amidase activity in each sample was evaluated, and the results are provided below in Table 3, with activities provided in units/mg cdw (cell dry weight). One unit of nitrile hydratase activity relates to the ability to convert 1 μmol of acrylonitrile to its corresponding amide per minute, per milligram of cells (dry weight) at a pH of 7.0 and a temperature of 30° C. One unit of amidase activity relates to the ability to convert 1 μmol of acrylamide to its corresponding acid per minute, per milligram of cells (dry weight) pH of 7.0 and a temperature of 30° C.

NC(=O)C[C@H](N)C(=O)O [Asparagine, asparagine]
Asparaginase I levels, YEMEA - Glucose With Cobalt (asparaginase I; YEMEA - Glucose, with cobalt): 6.5 units/mg cell dry weight | Asparaginase I levels, YEMEA - Glucose Without Cobalt (asparaginase I; YEMEA - Glucose, without cobalt): 5.3 units/mg cell dry weight | Asparaginase I levels, YEMEA - Maltose With Cobalt (asparaginase I; YEMEA - Maltose, with cobalt): 24.6 units/mg cell dry weight | Asparaginase I levels, YEMEA - Maltose Without Cobalt (asparaginase I; YEMEA - Maltose, without cobalt): 8.7 units/mg cell dry weight | Amidase Activity (amidase; Rhodococcus sp. DAP 96253, YEMEA, 10 ppm cobalt, 7.5 g/L urea, inducer 1000 ppm): 13.24 Units/mg cdw | amidase activity greater than that resulting from acrylonitrile (amidase; relative to acrylonitrile as inducer, 1000 ppm): approximately 74%
